Here are results for one compound from patent US5474992A, “Method of treatment with pharmaceutical composition for renal disorder and a dialysis solution for extracorporeal hemodialysis” (Senju Pharmaceutical Co., Ltd., priority 1993, dated 1995).

The subject of series [1] is adriamycin nephrosis in rats. Description: Effect on adriamycin nephrosis in rats. Type of series: in vivo, male SD rats. Conditions: 1 mg/kg, i.p. once daily, day 80, mean ± standard error, n=5 to 6. On the procedure:
The effect of the compound of this Invention on adriamycin nephrosis in rats was evaluated.
Method: This study was conducted in male SD rats (body weight: about 180 g) purchased from Japan SLC. The rats were intravenously dosed with 7.5 mg/kg of adriamycin to induce renal impairment.
The test substance EPC-K was administered intraperitoneally once daily and the rat was sacrificed on day 80 for determination of biochemical parameters. Physiological saline was used as control.

In series [2] the test system is adenine nephrosis in rats. Description: Effect on adenine nephrosis in rats. Type of series: in vivo, male Wistar rats. The following applies: i.p. once a day, mean ± standard error, n=8 to 9; for Creatinine: control (saline) 1.95 ± 0.64; for BUN: control (saline) 98.4 ± 34.5. The method, then:
The effect of the compound of this invention on adenine nephrosis in rats was evaluated.
Method: Male Wistar rats, aged 7 weeks, were purchased from SLC and used.
The rats were put on a 0.5% adenine-containing diet for 30 days to induce adenine nephrosis.
The test substance EPC-K was intraperitoneally administered once a day. Physiological saline was used as control.

Series [3] concerns neutrophil-derived active oxygens formed due to the dialysis membrane. Nature of the series: Chemiluminescence assay of scavenging effect on neutrophil-derived active oxygens formed due to the dialysis membrane. In kind it is cell-based, SD rat. The following applies: PMMA membrane, MCLA; for Chemiluminescence photon count: mean ± standard deviation, n=5, blank test 42392 ± 12789. On the procedure: The scavenging effect of the compound of this invention on the neutrophil-derived active oxygens formed due to the dialysis membrane was evaluated by the chemiluminescence assay.
An SD rat was intraperitoneally infused with 120 ml/kg of 1% casein-containing Krebs-Ringer bicarbonate buffer (Ca^2+ -free) and kept as it was for 15 to 18 hours. Then, ice-cooled phosphate buffered saline (Ca^2+ /Mg^2+ -free, briefly PBS) was infused into the peritoneal cavity and after massaging the abdomen, laparotomy was performed to collect the peritoneal fluid. This fluid was centrifuged (4° C.) at 150G for 5 minutes and the sediment was subjected to hemolysis treatment, washed with 2 portions of PBS and suspended in Hanks buffered saline (Ca^2+ /Mg^2+ -free; abbreviation: HBS) at a concentration of 5×10^6 cells/ml.
The hollow fiber of polymethyl methacrylate (PMMA) was taken out from the Filtrizer cartridge, rinsed and dried. The dried hollow fiber was milled in a mortar (to a particle diameter of about 20 to 100 μm) and suspended in HBS at a concentration of 100 mg/ml.
MCLA (2-methyl-6-[p-methoxyphenyl]-3,7,-dihydroimidazolo[1,2-a]pyrazin-3-one)(Cypridina luciferin analog; manufactured by Tokyo Kasei Kogyo Co., Ltd.) was dissolved in HBS at a concentration of 5 μM.
EPC-K was dissolved in HBS at final concentrations of 1 μM to 10 μM. To 100 μl of each solution were added 300 μl of the neutrophil suspension and 100 μl of the MCLA solution and the mixture was incubated at 37° for 10 minutes. Then, 20 μl of the PMMA suspension was added and the resulting MCLA-dependent chemiluminescence was quantitated in 5 replicates. From the photon count at maximal emission was subtracted the minimal count immediately following addition of the PMMA suspension to arrive at the chemiluminescence photon count (CPM). The count obtained with HBS (blank test) was compared with the count obtained with the drug and the percent inhibition (%) was calculated by means of the following equation. [formula]

In series [4] the test system is rats with vitamin E deficiency. Description: Effect on renal impairment in rats with vitamin E deficiency (DL-buthionine sulfoximine induced). In kind it is in vivo, male Wistar rats. Conditions: 141 mg/5 ml/kg p.o. once daily for one week, vitamin E-deficient rats + BSO, mean ± standard error, n=5. On the procedure:
The effect of the compound of this invention, administered orally, on renal impairment in rats with vitamin E deficiency was evaluated.
Test substance: L-ascorbyl DL-α-tocopheryl phosphate potassium (abbreviation: EPC-K).
Method: Male Wistar rats were purchased from Japan Clea, Inc. at the age of 4 weeks and put on a vitamin E-deficient diet for 10 weeks before the experiment.
The rat model of renal impairment was constructed by administering 1 mmol/kg of DL-buthionine sulfoximine (abbreviation: BSO), a glutathione (abbreviation: GSH) synthesis inhibitor, intraperitoneally once a day for 3 consecutive days.
Five hours after the last administration of DL-buthionine sulfoximine (BSO), the blood was drawn from the lower abdominal aorta under pentobarbital anesthesia and the serum levels of creatinine, urea nitrogen (abbreviation: BUN) and lipid peroxide (abbreviation: LPO), which are indicators of renal function, were determined by Jaffe's method, urease-indophenol method, and Yagi's method, respectively.
The test substance EPC-K was administered orally in a dose of 141 mg/5 ml/kg once daily for one week until the blood sampling day. As a control, distilled water was used.

The next series deals with salt-sensitive rats. Nature of the series: Effect on salt-sensitive rats (NaCl-induced renal impairment). Type of series: in vivo, male Dahl S rats. Conditions: mean ± standard error, n=4 to 6, * p < 0.0001, control 30.0 ± 2.9. The method, then: The effect of the compound of this invention on salt-sensitive rats was investigated.
Method: Male Dahl S rats (salt-sensitive rats) were purchased from Seiwa Experimental Animal Institute and loaded with 8% aqueous solution of sodium chloride to induce renal impairment.
The test substance EPC-K was administered once daily for 4 weeks. As a control, distilled water was orally administered.

Series [5] can be described thus: Acute toxicity (LD50) in rats. The following applies: rat, in vivo. On the procedure: The compound of this invention for use as the active ingredient of said pharmaceutical composition or dialysis solution is extremely low in toxicity and highly safe and, therefore, can be used advantageously for purposes of this invention [e.g. the LD50 values of L-ascorbyl DL-α-tocopheryl phosphate potassium (hereinafter referred to briefly as EPC-K)≥5 g/kg p.o. (rats) and≥100 mg/kg i.v. (rats)].

A word on the inhibition: it is how much of the control response was suppressed. As a reminder, the LD50 is the dose at which mortality reaches 50%. Low readings indicate a more toxic substance, high ones a less toxic substance. As for `Cc1c(C)c2c(c(C)c1OP(=O)(O)OC1=C(O)[C@@H]([C@@H](O)CO)OC1=O)CCC(C)(CCCC(C)CCCC(C)CCCC(C)C)O2` (mixture of isomers) [EPC-K, L-ascorbyl DL-α-tocopheryl phosphate potassium], the BUN in series [1] (* p < 0.0001, control (saline) 23.5 ± 1.7) is 18.2 ± 1.2 mg/dL; in series [2] (5 mg/kg, * p < 0.05), 61.5 ± 13.2 mg/dL; in series [2] (10 mg/kg, ** p < 0.01), 40.2 ± 5.2 mg/dL; in the series on salt-sensitive rats (5 mg/kg, i.p. once daily for 4 weeks) it was 15.6 ± 2.7 mg/dL; with salt-sensitive rats (141 mg/kg, p.o. once daily for 4 weeks), 18.5 ± 2.1 mg/dL. Further, the Creatinine in series [1] (control (saline) 0.50 ± 0.28) turned out to be 0.30 ± 0 mg/dL; in series [2] (5 mg/kg, * p < 0.05), 1.14 ± 0.32 mg/dL; in series [2] (10 mg/kg, ** p < 0.01), 0.73 ± 0.15 mg/dL. For the same compound, in series [1] (control (saline) 2.5 ± 1.8), the LPO was 1.4 ± 0.8 nmol/mL. In series [1] (control (saline) 696 ± 710), the Urinary protein is 119 ± 54 mg/day. For the same compound, the Chemiluminescence photon count turned out to be 32230 ± 6949 CPM in series [3] (1 μM), 26800 ± 3057 CPM in series [3] (3 μM) and 14518 ± 3648 CPM in series [3] (10 μM). The inhibition at 1 µM in series [3] (Rattus norvegicus, 1 μM, versus blank test (HBS), read-out: Percent inhibition) was determined as 24%. Also, in series [3] (Rattus norvegicus, 3 μM, versus blank test (HBS), read-out: Percent inhibition), the inhibition at 3 µM worked out at 36.8%. Also, the inhibition at 10 µM in series [3] (Rattus norvegicus, 10 μM, versus blank test (HBS), read-out: Percent inhibition) was determined as 65.8%. The “Creatinine (serum)” value in series [4] (* p < 0.05, distilled water 5.8 ± 0.2) was found to be 2.0 ± 1.3 mg/dL. In series [4] (** p < 0.01, distilled water 208.5 ± 17.7), the “BUN (serum)” value was 62.5 ± 37.1 mg/dL. Besides, the “LPO (serum lipid peroxide)” value in series [4] (distilled water 5.4 ± 0.9) was determined as 3.8 ± 0.1 nmol/mL. In addition, the LD50 in series [5] (iv, i.v. (rats)) was not below 100 mg/kg; in series [5] (po, p.o. (rats)), not below 5000 mg/kg.
